Test results: publication PMC9549809, “In vivo behavior of [^64Cu]NOTA-terpyridine platinum, a novel chemo-radio-theranostic agent for imaging, and therapy of colorectal cancer” (Frontiers in Medicine, 2022)
Like-named read-outs stand apart in the source and are kept apart here.

Legend:
HCT116 cells = test system: HCT116 cells; set-up: method as in PMID 34578470; settings: cited from earlier work
tumor = test system: tumor; set-up: method as in PMID 24337603; settings: cited from earlier work
plasma protein = settings: 24 h; cited from earlier work
HCT116 tumor [1] = settings: cited from earlier work
HCT116 tumor [2] = assay: Oxaliplatin in the same HCT116 mouse model (previous study); format: in vivo, nude mice

Row | Structure (SMILES) | nuclear accumulation relative to ^64Cu-NOTA-C3-TP (HCT116 cells) | tumor uptake (tumor; 15 min post-injection) [%ID/g] | tumor uptake (tumor; 2 h post-injection) [%ID/g] | tumor uptake (tumor; 16 h) [%ID/g] | bound to plasma protein (plasma protein) [%] | quantity measured in the tumor (HCT116 tumor [1]; 10 mg/kg (25 nmol/g mouse), 48 h post-injection) [nmol/g] | quantity in tumor as % of the injected dose (HCT116 tumor [1]; 10 mg/kg, 48 h post-injection) [%] | concentration in the tumor (HCT116 tumor [1]; 48 h post-injection) | EF, oxaliplatin plus 15 Gy external beam vs oxaliplatin alone (TGD) (HCT116 tumor [1]; same mouse model, irradiated 48 h post-injection) | times more platinum drug in the tumor than with [^64Cu]NOTA-C3-TP (HCT116 tumor [2]; 48 h) [times] | plasma concentration, times higher than [^64Cu]NOTA-C3-TP (HCT116 tumor [2]; 48 h post-injection, injected dose 1,250 times higher)
1 | CC(=O)[O-].CC(=O)[O-].[64Cu+2] [^64Cu(OAc)2] | significantly lower | 1.28 ± 0.13 | 2.76 ± 0.63 | 1.28 ± 0.07 |  |  |  |  |  |  | 
2 | O=C1[O][Pt]2([NH][C@@H]3CCCC[C@H]3[NH]2)[O]C1=O [oxaliplatin] |  |  |  |  | 98 | 0.3 | 1.2 | 0.12 μg/g of tumor | 5.18 | 333 | about 6 times
